Source: PMC3923112, “A non-radioactive method for measuring Rubisco activase activity in the presence of variable ATP: ADP ratios, including modifications for measuring the activity and activation state of Rubisco” (Photosynthesis Research, 2014)

What was measured:
Assay type in all cases: biochemical
[1] = target: T1, tobacco Rubisco (wild-type) (Nicotiana tabacum, UniProt P00876); assay: continuous coupled 3-PGA formation assay (NADH, A340); details: ECM form, 0.5 or 2 mM RuBP, 10 mM NaHCO3, 10 mM MgCl2, 5 mM ATP, pH 8, 30 °C; RuBP also inhibits as tight ER complex
T1 construct: gene rbcL; native, purified from tobacco leaves; converted to ER form or carbamylated ECM form; with Ribulose bisphosphate carboxylase small subunit, chloroplastic

[2] = target: T2, His-tagged modified Rubisco (Nicotiana tabacum, UniProt P00876); assay: as above; details: ECM form, 0.5 or 2 mM RuBP, 10 mM NaHCO3, 10 mM MgCl2, 5 mM ATP, pH 8, 30 °C; RuBP also inhibits as tight ER complex
T2 construct: gene rbcL; six histidines added to the C-terminus of the large subunit; from transgenic tobacco plants; with Ribulose bisphosphate carboxylase small subunit, chloroplastic

Arabidopsis β-RCA = target: T3, Arabidopsis β-RCA (Arabidopsis thaliana, UniProt P10896); assay: continuous coupled Rubisco activation assay (dPGM, enolase, PEP carboxylase, malate dehydrogenase; NADH, A340); details: ADP plus ATP 5 mM total at ADP:ATP 0.33; tobacco Rubisco ER form not restated for this set; pH 8, 30 °C, 10 mM MgCl2
T3 construct: recombinant, expressed in Escherichia coli and purified
T3 sequence (P10896 59-446 isoform P10896-2): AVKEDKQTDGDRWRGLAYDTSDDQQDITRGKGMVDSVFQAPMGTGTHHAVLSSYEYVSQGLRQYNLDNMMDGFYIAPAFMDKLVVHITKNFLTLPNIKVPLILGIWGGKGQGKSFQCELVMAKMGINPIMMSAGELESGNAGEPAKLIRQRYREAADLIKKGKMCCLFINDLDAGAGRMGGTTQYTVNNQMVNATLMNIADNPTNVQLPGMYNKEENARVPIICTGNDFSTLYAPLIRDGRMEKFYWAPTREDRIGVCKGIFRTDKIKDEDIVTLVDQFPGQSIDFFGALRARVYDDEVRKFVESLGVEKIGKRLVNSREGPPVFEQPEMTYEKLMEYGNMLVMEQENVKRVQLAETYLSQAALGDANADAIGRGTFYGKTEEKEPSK

T2 sequence (P69249 58-180, other chains not shown): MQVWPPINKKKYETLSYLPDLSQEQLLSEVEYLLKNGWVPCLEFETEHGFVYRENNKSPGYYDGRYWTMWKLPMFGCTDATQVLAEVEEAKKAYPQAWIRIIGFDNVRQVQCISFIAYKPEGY
T1 sequence (P69249 58-180, other chains not shown): as above

How did the “continuous coupled 3-PGA formation assay (NADH, A340)” value [1] turn out when `O=C(COP(=O)(O)O)[C@H](O)[C@H](O)COP(=O)(O)O` [RuBP] was run?
The value was “specific activity of the ECM form of wild-type and modified Rubisco”.

And the “continuous coupled 3-PGA formation assay (NADH, A340)” value [2]?
The value was “specific activity of the ECM form of wild-type and modified Rubisco”.

For `Nc1ncnc2c1ncn2[C@@H]1O[C@H](COP(=O)(O)OP(=O)(O)O)[C@@H](O)[C@H]1O` [ADP], which “% inhibition at 0.33 ADP:ATP” value (Arabidopsis β-RCA) is on record?
Its value is 25%.
